Measurements: article PMC8998611, “Identification of Novel GSK-3β Hits Using Competitive Biophysical Assays” (International Journal of Molecular Sciences, 2022)

Legend:
GSK-3β [1] = target: T1, GSK-3β (Homo sapiens, UniProt P49841); assay: LANCE Ultra TR-FRET GSK-3β kinase inhibition assay (ULight-GS phosphorylation); assay type: biochemical; settings: 1 µM ATP, 50 nM ULight-GS; for IC50: dose-response 30 nM to 200 μM
Procedure: To assess if the identified GSK-3β binders were also able to affect kinase activity, the inhibitory activity of the four identified hit compounds was tested at four concentrations (1-5-50-100 μM) using the LANCE® Ultra (Perkin Elmer, Waltham, MA, USA) time-resolved fluorescence resonance energy transfer (TR-FRET) assay. The assay measures the ability of GSK-3β to phosphorylate a specific substrate, human Muscle Glycogen Synthase (ULight-GS ([…]/pSer657)), in the presence and absence of the identified ligands. […] Specifically, IC50 values were (14.81 ± 0.55) μM and (15.25 ± 1.34) μ[…] and G12, respectively (Figure 5). The GSK-3β kinase assay was run in 384 well microplates (OptiPlate^TM-384, White, Perkin Elmer) with a total reaction volume of 20 μL. The inhibitory potency against human recombinant GSK-3β was evaluated using the LANCE® Ultra (Perkin Elmer) time-resolved fluorescence resonance energy transfer (TR-FRET) by measuring the phosphorylation of the specific substrate, human Muscle Glycogen Synthase (ULight-GS ([…]/pSer657)), according to the manufacturer's instructions. […] The reaction was initiated by adding 50 nM of the substrate ULight-[…] and 1 μM ATP. The mixture was incubated for 1 h at 23 °C. Afterward, the reaction was stopped by adding 8 mM EDTA. After 5 min, the anti-phospho-GS antibody labeled with europium chelate was added. 1 h later, the kinase reaction was monitored by irradiation at 320 nm, and the fluorescence was measured at 615 and 665 nm, using EnVision 2014 Multilabel Reader (PerkinElmer). The calculated signal ratio at 665/615 nm was proportional to the extent of ULight-GS phosphorylation. The compounds were screened at four concentrations (1-5-50-100 μM). For selected compounds, dose-response curves, ranging from 30 nM up to 200 μM, were performed. Dose-response curves were run in three independent experiments, each performed in three technical replicates. IC50 values (concentrations causing half-maximal response or enzyme inhibition) were determined by non-linear regression analysis of the Log [concentration]/response curves generated with mean replicate values using a four parameter Hill equation curve fitting with GraphPad Prism 8 (GraphPad Software Inc., San Diego, CA, USA).

GSK-3β [2] = target: T1, GSK-3β; assay: MicroScale Thermophoresis (MST) binding to fluorescently labeled GSK-3β; parameters: made in house; host or cells: Sf9 cells; settings: preincubation with 3 mM AMP-PNP; data not shown
Procedure: MicroScale Thermophoresis (MST) experiments were conducted in triplicate on a Monolith NT.115 Pico system (NanoTemper Technologies, Munich, Germany).
The MST technique was used both for hit binding and for affinity (kd) determination.
GSK-3β was labeled with the His-tag RED-tris-NTA label 2nd generation (Nanotemper Technologies) following Nanotemper technology protocol. The 100 nM stock labeled protein solution was used at 20 nM concentration to roughly start from 7000 fluorescence counts in each screening experiment.
GSK-3β was labelled also using RED-NHS ammine dye (Nanotemper Technologies) following the manufacturer’s protocol. The obtained ammine-labeled protein was used at 20 nM concentration to roughly start the experiments from 6000 fluorescence counts.
Binding tests were performed on eight capillaries with a constant concentration of the labeled protein (20 nM), to detect the effect induced by the compounds on the fluorescence signal (in the presence or absence of 3 mM AMP-PNP). Protein in assay buffer in the presence of 5% DMSO was the negative control.
Assay buffer: Phosphate buffer 0.1 M pH 7.2, 5 mM MgCl2, 0.001% Tween80, 0.1% PEG8000. Experiments were performed in triplicates. Data elaboration and plots were performed using MO.Control Nanotemper software.

T1 sequence (P49841 whole entry): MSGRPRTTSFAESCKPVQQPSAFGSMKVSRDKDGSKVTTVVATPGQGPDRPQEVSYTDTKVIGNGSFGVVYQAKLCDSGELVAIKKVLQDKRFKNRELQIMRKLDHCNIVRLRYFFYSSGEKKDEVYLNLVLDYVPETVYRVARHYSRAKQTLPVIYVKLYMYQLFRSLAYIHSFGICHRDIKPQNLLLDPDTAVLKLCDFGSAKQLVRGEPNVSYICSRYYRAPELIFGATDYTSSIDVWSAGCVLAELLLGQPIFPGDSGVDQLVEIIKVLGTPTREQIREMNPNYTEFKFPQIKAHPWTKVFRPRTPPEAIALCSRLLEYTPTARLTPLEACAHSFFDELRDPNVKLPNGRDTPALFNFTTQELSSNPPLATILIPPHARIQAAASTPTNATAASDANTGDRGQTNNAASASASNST

| inhibition at 1 µM (GSK-3β [1]; 1 μM compound, mean ± SD) [%] | inhibition at 5 µM (GSK-3β [1]; 5 μM compound, mean ± SD) [%] | inhibition at 50 µM (GSK-3β [1]; 50 μM compound, mean ± SD) [%] | inhibition at 100 µM (GSK-3β [1]; 100 μM compound, mean ± SD) [%] | MST binding check, displacement assay (GSK-3β [2]) | IC50 (GSK-3β [1]) [µM] | SMILES |
| --- | --- | --- | --- | --- | --- | --- |
| 2.5 ± 0.9 | 4.9 ± 1.5 | 27.1 ± 4.9 | 46.6 ± 6 | maintained their ability to bind GSK-3β | – | O=C(NCCn1ncc(-c2ccncc2)c1C1CC1)c1ccccc1F [B3] |
| – | – | – | – | – | 27.2 | CN(C)S(=O)(=O)N1CC(c2nc(N)ncc2-c2ccc(F)cc2)C1 [ARN9133] |
| – | – | – | – | – | 38.1 | O=C(Nc1ccccn1)C1CCN(C(=O)COc2ccccc2F)C1 (stereo not shown) [ARN1484] |
